Results taken from the supplement of paper PMC8671470.

Legend:
Details in all cases: 72 h
[1] = tested on: myeloid leukemia patient primary cells Pat.12; test: cell viability (% survival relative to DMSO control); higher = less cytotoxic
Procedure, shortened: (§1)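 Where an area under the curve appears, it was computed with the drc and PharmacoGx R packages from log-logistic fits. Those fits used four parameters. The underlying viability data came from CellTiter-Glo after 72 h, normalised to DMSO and 10 μM proteasome-inhibitor wells, with thawed, Ficoll-purified AML or CML patient mononuclear cells at 10,000 cells/well in RPMI 1640 with 10% FBS on 384-well plates pre-printed with 70 compounds at five tenfold concentrations (1–10,000 nM) in duplicate.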

[2] = tested on: myeloid leukemia patient primary cells Pat.5; test: as above
Procedure, shortened: as §1

[3] = tested on: myeloid leukemia patient primary cells Pat.1; test: as above
Procedure, shortened: as §1

[4] = tested on: myeloid leukemia patient primary cells Pat.13; test: as above
Procedure, shortened: as §1

[5] = tested on: myeloid leukemia patient primary cells Pat.4; test: as above
Procedure, shortened: as §1

[6] = tested on: myeloid leukemia patient primary cells Pat.15; test: as above
Procedure, shortened: as §1

[7] = tested on: myeloid leukemia patient primary cells Pat.14; test: as above
Procedure, shortened: as §1

[8] = tested on: myeloid leukemia patient primary cells Pat.6; test: as above
Procedure, shortened: as §1

[9] = tested on: myeloid leukemia patient primary cells Pat.3; test: as above
Procedure, shortened: as §1

[10] = tested on: myeloid leukemia patient primary cells Pat.2; test: as above
Procedure, shortened: as §1

[11] = tested on: myeloid leukemia patient primary cells Pat.7; test: as above
Procedure, shortened: as §1

[12] = tested on: myeloid leukemia patient primary cells Pat.9; test: as above
Procedure, shortened: as §1

[13] = tested on: myeloid leukemia patient primary cells Pat.11; test: as above
Procedure, shortened: as §1

[14] = tested on: myeloid leukemia patient primary cells Pat.8; test: as above
Procedure, shortened: as §1

[15] = tested on: myeloid leukemia patient primary cells Pat.10; test: as above
Procedure, shortened: as §1

BV-173 = tested on: BV-173
Procedure, shortened: (§2)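 The IC50 was derived from log-logistic dose–response fitting. Each of fifteen myeloid leukaemia cell lines, seeded in RPMI 1640 within its linear growth range, was exposed in 384-well plates to five tenfold doses (1 to 10,000 nM) in duplicate for 72 h at 37 °C and 5% CO2. Luminescent ATP viability readings were normalised to vehicle and to a positive control at 10 µM before four-parameter curve fitting.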

KCL-22 = tested on: KCL-22
Procedure, shortened: as §2

ML-2 = tested on: ML-2
Procedure, shortened: as §2

LAMA-84 = tested on: LAMA-84
Procedure, shortened: as §2

KG-1 = tested on: KG-1
Procedure, shortened: as §2

NOMO-1 = tested on: NOMO-1
Procedure, shortened: as §2

K-562 = tested on: K-562
Procedure, shortened: as §2

THP-1 = tested on: THP-1
Procedure, shortened: as §2

SHI-1 = tested on: SHI-1
Procedure, shortened: as §2

HL-60 = tested on: HL-60
Procedure, shortened: as §2

HEL = tested on: HEL
Procedure, shortened: as §2

KU-812 = tested on: KU-812
Procedure, shortened: as §2

MOLM-13 = tested on: MOLM-13
Procedure, shortened: as §2

Mono-Mac-6 = tested on: Mono-Mac-6
Procedure, shortened: as §2

[16] = tested on: myeloid leukemia patient primary cells Pat.3; test: area under dose-response curve (viability, 1 nM-10 uM) (fraction (0-1)); higher = more sensitive
Procedure: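 AUC (0–1, higher = more sensitive) of the 5-point dose–response (1 nM–10 µM, 72 h, CellTiter-Glo) in primary AML/CML patient mononuclear cells. 0.030103 is the floor for inactive compounds.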

Oc1ncc(F)c(O)n1 [5-fluorouracil]
cell viability [%]
Details | 1 nM | 10 nM | 100 nM | 1000 nM | 10000 nM
[1] | 94.2 | 95.4 | 87.6 | 95.5 | 91.4
[2] | 88.1 | 90.3 | 84.7 | 61.3 | 13.9
[3] | 88.5 | 93.1 | 91 | 97 | 85.8
[4] | 88.8 | 91.2 | 90 | 72.7 | 81
[5] | 90.8 | 88.4 | 92.1 | 88.9 | 60.6
[6] | 83.4 | 91.5 | 96.7 | 91 | 93.9
[7] | 94.6 | 87 | 90.3 | 90.2 | 84.9
[8] | > 100 | 96.6 | 95.8 | 99.3 | 98.5
[9] | 90.4 | 96.5 | 94.5 | 96.6 | 41.9
[10] | 95.9 | 94.9 | 99.1 | 88.9 | 97.5
[11] | 89.7 | 83.9 | 82.8 | 92.8 | 50.8
[12] | 76.6 | 52.3 | 92.6 | 71.4 | 45.4
[13] | 99.9 | 97.2 | 96.6 | 96.7 | 95.7
[14] | 85.8 | 86.3 | 94.5 | 80.1 | 98.7
[15] | > 100 | 78.1 | 65 | 68.9 | 50.5

Details | IC50 (cell viability) [nM] | area under dose-response curve
BV-173 | 3480 | –
HEL | 2300 | –
HL-60 | 1070 | –
K-562 | > 10000 | –
KCL-22 | 2680 | –
KG-1 | 4310 | –
KU-812 | > 10000 | –
LAMA-84 | 6310 | –
ML-2 | 2300 | –
MOLM-13 | 353 | –
Mono-Mac-6 | 711 | –
NOMO-1 | 9600 | –
SHI-1 | 2690 | –
THP-1 | > 10000 | –
[16] | – | 0.0441

Clc1cc(Cl)c(OCC#CI)cc1Cl [Haloprogin]
cell viability [%]
Details | 1 nM | 10 nM | 100 nM | 1000 nM | 10000 nM
[1] | 92.9 | 96.3 | 94.2 | 67.1 | 0.0486
[2] | 87.2 | 69.7 | 2.24 | < 0 | 0.912
[3] | 91.8 | 99.9 | 82 | 48.3 | 14.1
[4] | 88.1 | 86 | 91 | 67.8 | 26.3
[5] | 88.7 | 87.3 | 85.3 | 13 | 28.3
[6] | 85.7 | 98.8 | 85.4 | 66.8 | 6.74
[7] | 88.5 | 96.7 | 68.3 | 7.52 | < 0
[8] | > 100 | > 100 | 93.3 | 54.7 | < 0
[9] | > 100 | 99.9 | 92.4 | 1.81 | < 0
[10] | 93.8 | 96.9 | 92.1 | 65 | < 0
[11] | 72.1 | > 100 | > 100 | 3.48 | < 0
[12] | 80.9 | 62.4 | 43.4 | 3.45 | 3.68
[13] | 94.1 | > 100 | 96 | 81.8 | 1.14
[14] | 66.4 | > 100 | 81.4 | 67.1 | 1.78
[15] | 43.6 | 75.4 | 46.9 | 23.9 | 93.2

Details | IC50 (cell viability) [nM] | area under dose-response curve
BV-173 | 1580 | –
HEL | 3480 | –
HL-60 | > 10000 | –
K-562 | 5060 | –
KCL-22 | 1710 | –
KG-1 | 3260 | –
KU-812 | 2030 | –
LAMA-84 | 5490 | –
ML-2 | 3250 | –
MOLM-13 | 3950 | –
Mono-Mac-6 | 2840 | –
NOMO-1 | 3090 | –
SHI-1 | > 10000 | –
THP-1 | 1690 | –
[16] | – | 0.388

CCC(CC#N)OC(=O)N[C@@H](C)c1cccc(NC(=O)Nc2ccc(-c3cnco3)c(OC)c2)c1 (stereo in doubt) [AVN-944]
cell viability [%]
Details | 1 nM | 10 nM | 100 nM | 1000 nM | 10000 nM
[1] | 98.7 | > 100 | 87.7 | > 100 | 92.9
[2] | 56.9 | 45.4 | 40.4 | 9.12 | 5.69
[3] | 90.9 | 85.7 | 87.2 | 82.4 | 65.8
[4] | 91.5 | 93.1 | 90.6 | 63.4 | 36.5
[5] | 86 | 90.7 | 92.9 | 63 | 33.4
[6] | 94.9 | > 100 | 83.3 | 89.7 | 71.1
[7] | 88.2 | 97.5 | 84.9 | 63.5 | 34.3
[8] | 97.1 | 90.8 | 92.9 | 87.4 | 64
[9] | > 100 | 80.4 | 51.2 | 29.3 | 20
[10] | > 100 | 98.9 | 81.5 | 81.8 | 83.1
[11] | 98.1 | 91.5 | 25.3 | 17.6 | < 0
[12] | 74.9 | 72.1 | 50 | 15.9 | 1.99
[13] | > 100 | 99.4 | 90.8 | 86.2 | 60.6
[14] | 82.5 | 92.3 | 86.4 | 68.7 | 58.1
[15] | > 100 | 66.9 | 41.6 | 58.3 | 4.94

Details | IC50 (cell viability) [nM] | area under dose-response curve
BV-173 | 118 | –
HEL | 151 | –
HL-60 | 182 | –
K-562 | 55.8 | –
KCL-22 | 62.8 | –
KG-1 | 173 | –
KU-812 | 94.9 | –
LAMA-84 | 73.6 | –
ML-2 | 66.8 | –
MOLM-13 | 44.9 | –
Mono-Mac-6 | 151 | –
NOMO-1 | 451 | –
SHI-1 | 137 | –
THP-1 | 1900 | –
[16] | – | 0.44
